Experiments:
[1] = system: primary human fibroblast cells (ws1); assay: Confocal imaging of Fe2+ with Rh6GD in ws1 cells; assay type: cell-based
Method: Human primary fibroblast ws1 cells were grown at 37° C. in a humid atmosphere of 5% CO2 atmosphere in eagle's minimum essential medium (EMEM, ATCC) supplemented with 10% fetal bovine serum (FBS, ATCC). Cultures were divided into 1:2 every 48 h to an approximate cell density of 1.21 million cells/ml and used for experiments after 24 h.
A Zeiss LSM 710 laser-scanning confocal microscope system was used for cell imaging experiments. 40× oil-immersion objective lens were used to perform all the experiments. For imaging with the Rh6GD sensor, excitation wavelength of the laser was 543 nm and emissions were collected over the range 545-625 nm. For images with MitoTracker Green FM, LysoTracker Deep Red, excitation wavelengths recommended by the manufacturer were 488 nm for MitoTracker, 633 nm for LysoTracker. Emissions were integrated at 492-535 nm (MitoTracker), 650-800 nm (LysoTracker), respectively.
Ws1 cells, at an approximately density of 1.2 million/ml in complete EMEM medium, were incubated with 100 μM ferrous ammonium sulfate (FAS, Fe (NH4)2(SO4)2 from a 10 mM stock solution) for overnight at 37° C. in a humid atmosphere of 5% CO2 and then the cells were washed with fresh EMEM medium to remove excess Fe^2+. Then cells were incubated with Rh6GD (10 μM, from 500 μM stock solution in DMF) at 37° C. for 30 min and then cells were washed with EMEM media and then imaged. In addition, some cells were treated firstly with 100 μM Fe^2+ overnight and then the cells were washed with fresh EMEM medium. For chelation experiments, Fe^2+-loaded cells or untreated cells were incubated with 1 mM 2,2′-bipyridyl (Bpy) at 37° C. for 30 min, then sensor was added followed by washing with the media, and then imaging was done. Controls were imaged without incubation with Fe^2+ or 2,2′-bipyridyl.
The ability of Rh6GD to detect Fe^2+ in primary human fibroblast cells (ws1) was investigated by using confocal microscopy. […] For Fe^2+ repleting conditions, live ws1 cells were incubated with 100 μM of ferrous ammonium sulfate (Fe (NH4)2(SO4)2) at 37° C. for overnight followed by washing with EMEM medium to remove excess Fe^2+ and then 10 μM of Rh6GD was added to the culture media and was incubated at 37° C. for 30 min. […] This fluorescent intensity is almost the same as that of cells without Fe^2+ or Bpy treatment (FIG. 34B).
To explore this, the distribution of exchangeable Fe^2+ pools in live ws1 cells were further investigated using Rh6GD, together with colocalization experiments using other dyes such as MitoTracker Green FM (a green fluorescent dye which localizes to mitochondria in live cells regardless of mitochondrial membrane potential) and LysoTracker Deep Red (a fluorescent dye that stains acidic compartments such as endosomes and lysosomes in live cells). […]

[2] = Metal ion sensing: UV-vis and fluorescence response to Fe2+ and other metal ions
Method: Selectivity and spectroscopic properties of the Rh6GD sensor were investigated to evaluate the performance of the fluorescence sensor in solution. The solution of metal ions were prepared from chloride salts of Ni^2+, Fe^3+, Cu^2+, Mn^2+, Hg^2+, Na^+, Ca^2+, Zn^2+, Ag^+, and nitrate salts of Mg^2+, K^+, Co^2+ (1 mM) in deionized water, except for Cu^2+ and Co^2+, which were dissolved in acetonitrile anhydrous. Solution of Cu^+ was freshly prepared by dissolving tetrakis(acetonitrile)copper(I) (Sigma-Aldrich) into double-distilled water. […]
(§1) The color change for Fe^2+ is readily detected visually. […]
The changes in fluorescence spectra of Rh6GD with the addition of different metal ions in H2O/THF (pH 7.32, v/v 4:1) are shown in FIG. 23. When Fe^2+ was added into the solution of Rh6GD, a large fluorescence enhancement at 549 nm was observed, induced by the complexation of Fe^2+.
Moreover, upon the addition of 1 equiv of Fe^2+ into solutions containing one of the other metal ions tested, the fluorescence was activated and the intensity increased to a level similar to that observed in the presence of Fe^2+ only (the black bars in FIG. 24).
Metal ion selectivity and spectroscopic properties of the sensor were investigated to evaluate the performance of the fluorescence sensor Rh101D. […]
as §1

SMILES: CCNc1cc2c(cc1C)C1(c3cc(C)c(NCC)cc3O2)c2ccccc2C(=O)N1/N=C/C=C/c1ccc(N(C)C)cc1 [Rh6GD, 2-(((1E,2E)-3-(4-(dimethylamino)phenyl)allylidene)amino)-3′,6′-bis(ethylamino)-2′,7′-dimethylspiro[isoindoline-1,9′-xanthen]-3-one]
- fluorescence of cells with sensor only ([1]; 10 μM Rh6GD): weak fluorescence
- fluorescence of cells treated with Fe^2+ then Bpy ([1]; 100 μM Fe^2+ overnight, Bpy, 10 μM Rh6GD, versus Fe^2+ supplement): marked decrease in fluorescent intensity
- fluorescence of Fe^2+-treated cells versus unsupplemented ([1]; 100 μM ferrous ammonium sulfate overnight, then 10 μM Rh6GD 30 min): significant increase in fluorescent signals
- fluorescence of Bpy-treated cells ([1]; Bpy, then 10 μM Rh6GD, versus sensor only): significantly decrease in fluorescence signal
- fluorescence enhancement response to Fe^2+ [2]: 3 fold
- emission intensity enhancement ([2]; 1.0 equiv of Fe^2+, H2O/THF pH 7.32, 549 nm (Rh6GD), 743 nm (NIRh-Fret)): around 3 times
